In ChEMBL document CHEMBL4428113, “Antitubercular and cytotoxic tigliane-type diterpenoids from Croton tiglium” (Bioorg Med Chem Lett, 2016):
pIC50: −log10 of the molar value.

Assays:
K562 = experiment: Cytotoxicity against human K562 cells after 72 hrs by CCK8 assay; assay type: functional, cell-based; settings: K562, 72 h
A549 = experiment: Cytotoxicity against human A549 cells after 72 hrs by CCK8 assay; assay type: functional, cell-based; settings: A549, 72 h
Huh-7 = experiment: Cytotoxicity against human HuH7 cells after 72 hrs by CCK8 assay; assay type: functional, cell-based; settings: Huh-7, 72 h
[1] = system: Mycobacterium tuberculosis; experiment: Antitubercular activity against Mycobacterium tuberculosis H37Ra incubated for 7 days by Alamar blue dye-based fluorometric assay; assay type: functional, organism-based; settings: 168 h

`C/C=C(\C)C(=O)O[C@@H]1[C@@H](C)[C@]2(O)[C@@H]3C=C(C)C(=O)[C@@H]3CC(CO)=C[C@H]2[C@@H]2C(C)(C)[C@]12OC(C)=O` gave a pIC50 (K562) of 7.15, a pIC50 (A549) of 5.07 and a pIC50 (Huh-7) of 5.47. For the same compound, the pIC50 [1] was 4.69.

Work on `CCC(C)C(=O)O[C@@]12[C@H](O)[C@@H](C)[C@@]3(O)[C@H]([C@@H]1C2(C)C)[C@@H](O)C(CO)=C[C@]1(O)C(=O)C(C)=C[C@@H]31` (some centres not stated) yielded a pIC50 (K562) of 7.15, a pIC50 (A549) of 5.05 and a pIC50 (Huh-7) of 4.94. It also gave a pIC50 [1] of less than 4.52.

Work on `CCC(C)C(=O)O[C@@]12[C@H](O)[C@@H](C)[C@@]3(O)[C@@H](C=C(CO)C[C@]4(O)C(=O)C(C)=C[C@@H]34)[C@@H]1C2(C)C` (some centres not stated) yielded a pIC50 (K562) of 7.30, a pIC50 (A549) of 4.36 and a pIC50 (Huh-7) of 4.47. For the same compound, the pIC50 [1] was less than 4.52.

Work on `C/C=C(\C)C(=O)O[C@@H]1[C@@H](C)[C@]2(O)[C@@H]3C=C(C)C(=O)[C@@H]3CC(C=O)=C[C@H]2[C@@H]2C(C)(C)[C@]12OC(C)=O` yielded a pIC50 (K562) of 7.52, a pIC50 (A549) of 5.16 and a pIC50 (Huh-7) of 5.41. For the same compound, the pIC50 [1] was 4.71.

With `C/C=C(\C)C(=O)O[C@@H]1[C@@H](C)[C@@]2(O)[C@@H](C(=O)C(CO)=C[C@]3(O)C(=O)C(C)=C[C@@H]23)[C@@H]2C(C)(C)[C@]12OC(=O)C(C)C` the pIC50 (K562) was 7.30, the pIC50 (A549) was 5.51 and the pIC50 (Huh-7) was 5.36. The pIC50 [1] was 4.87.

In the case of `CCC(C)C(=O)O[C@@]12[C@H](O)[C@@H](C)[C@@]3(O)[C@@H](C(=O)C(CO)=C[C@]4(O)C(=O)C(C)=C[C@@H]34)[C@@H]1C2(C)C` (some centres not stated), the pIC50 (K562) was 7.52, the pIC50 (A549) was 5.20 and the pIC50 (Huh-7) was 4.68. For the same compound, the pIC50 [1] was 4.68.

`NNC(=O)c1ccncc1` [ISONIAZID] was tested, and the pIC50 [1] was 5.69.

Work on `CC(=O)O[C@H]1C(=O)[C@@]2(C)[C@H]([C@H](OC(=O)c3ccccc3)[C@]3(O)C[C@H](OC(=O)[C@H](O)[C@@H](NC(=O)c4ccccc4)c4ccccc4)C(C)=C1C3(C)C)[C@]1(OC(C)=O)CO[C@@H]1C[C@@H]2O` [PACLITAXEL] yielded a pIC50 (K562) of 5.49, a pIC50 (A549) of 5.72 and a pIC50 (Huh-7) of 5.17.

`CC1=C[C@H]2[C@@]3(O)[C@H](C)[C@@H](O)[C@]4(O)[C@H]([C@@H]3C=C(CO)C[C@]2(O)C1=O)C4(C)C` [PHORBOL] gave a pIC50 (K562) of 7.00, a pIC50 (A549) of 4.82 and a pIC50 (Huh-7) of 5.23. For the same compound, the pIC50 [1] was less than 4.52.
